The source of these data is ChEMBL document CHEMBL1667742, “Angiotensin II receptor type 1 (AT1) selective nonpeptidic antagonists--a perspective” (Bioorg Med Chem, 2010).

SMILES strings stand for the structures. Where a chain is given by its changes, count along the chain named.

Series [1] addresses T1, Type-1 angiotensin II receptor (Homo sapiens) (UniProt P30556).
T1 sequence (whole entry): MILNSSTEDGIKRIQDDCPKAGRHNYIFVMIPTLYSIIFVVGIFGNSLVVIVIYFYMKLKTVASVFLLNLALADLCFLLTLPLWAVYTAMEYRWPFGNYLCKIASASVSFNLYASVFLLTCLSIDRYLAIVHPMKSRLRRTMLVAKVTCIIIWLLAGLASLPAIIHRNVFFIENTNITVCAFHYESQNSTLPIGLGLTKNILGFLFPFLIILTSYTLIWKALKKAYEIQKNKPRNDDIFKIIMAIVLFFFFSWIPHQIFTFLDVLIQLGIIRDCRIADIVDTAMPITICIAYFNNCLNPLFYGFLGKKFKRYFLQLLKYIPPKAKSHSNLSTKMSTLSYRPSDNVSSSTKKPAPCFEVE
Kind of series: (§1) Binding affinity to angiotensin AT1 receptor.

The nature of series [2]: Antagonist activity at angiotensin AT1 receptor in rat mesenteric artery. The class given is functional.
In series [3] the target is T2, Type-1 angiotensin II receptor (Cavia porcellus, UniProt Q9WV26).
T2 sequence (Q9WV26 whole entry): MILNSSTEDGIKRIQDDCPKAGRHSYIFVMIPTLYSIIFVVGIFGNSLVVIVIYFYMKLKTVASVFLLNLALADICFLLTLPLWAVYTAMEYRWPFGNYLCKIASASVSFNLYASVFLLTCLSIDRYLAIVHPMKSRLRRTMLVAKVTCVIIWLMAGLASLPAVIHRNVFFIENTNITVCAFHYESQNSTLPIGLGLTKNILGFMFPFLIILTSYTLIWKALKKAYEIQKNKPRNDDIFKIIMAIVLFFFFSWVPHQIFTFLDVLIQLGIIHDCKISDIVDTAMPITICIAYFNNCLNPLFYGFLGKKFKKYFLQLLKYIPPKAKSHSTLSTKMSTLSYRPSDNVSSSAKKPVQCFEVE
Briefly: Antagonist activity at angiotensin AT1 receptor in guinea pig ileum. The class given is functional, tissue-based. Conditions: read-out: pA2 (converted).

The target in series [4] is T3, Type-1 angiotensin II receptor (Oryctolagus cuniculus, UniProt P34976).
T3 sequence (P34976 whole entry): T1 sequence (whole entry) with I2M, V49A, I254V, I270V, R272H, R311K, T349S, A353V
Kind of series: Antagonist activity at angiotensin AT1 receptor in rabbit aorta assessed as reduction of angiotensin 2-induced contractile response. The class given is functional, tissue-based. To be noted: read-out: pA2 (converted).

The nature of series [5]: Antagonist activity at angiotensin AT1 receptor in rat uterine membranes. The class given is functional, cell membranes.
The nature of series [6]: Binding affinity to angiotensin AT1 receptor in rat lung membranes. The class given is cell membranes, Membrane.
Series [7] relates to Rattus norvegicus. Briefly: Antihypertensive activity in po dosed renal hypertensive rat model assessed as reduction of angiotensin 2-induced blood pressure up to 24 hrs. Type of series: functional.
The target in series [8] is T3, Type-1 angiotensin II receptor. Briefly: (§2) Antagonist activity at angiotensin AT1 receptor in rabbit aorta. The class given is functional, tissue-based.
The nature of series [9]: Binding affinity to angiotensin AT1 receptor in rat cortical membranes. Type of series: cell membranes.
The target in series [10] is T3, Type-1 angiotensin II receptor. Briefly: Antagonist activity at angiotensin AT1 receptor in rabbit aortic strip assessed as inhibition of angiotensin 2-induced contractile response. The class given is functional. To be noted: read-out: pA2 (converted).
Series [11] can be described thus: Binding affinity to angiotensin AT1 receptor in bovine adrenal cortex membranes.
Series [12] in a line: Oral bioavailability in rat. Type of series: ADME, organism-based. Conditions: in vivo.
Series [13] in a line: Half life in rat. The class given is ADME, organism-based. To be noted: in vivo.
For series [14], the species on record is Rattus norvegicus. Briefly: (§3) Antagonist activity at angiotensin AT1 receptor in rat liver membranes. The class given is functional, cell membranes. Conditions: Membrane.
Series [15] concerns Rattus norvegicus. Briefly: Antihypertensive activity in furosemide-treated sodium depleted rat model assessed as reduction of blood pressure at 10 mg/kg, po. Type of series: functional.
In series [16] the test system is Rattus norvegicus. Kind of series: Antihypertensive activity in furosemide-treated sodium depleted rat model assessed as reduction of blood pressure at 3 mg/kg, po. Type of series: functional.
Series [17] in a line: Binding affinity to angiotensin AT1 receptor in rat liver membranes. Type of series: cell membranes, Membrane.
The test system of series [18] is Rattus norvegicus. Briefly: Inhibition of angiotensin 2-induced response in iv dosed pithed normotensive rat. Type of series: functional.
Series [19] deals with Rattus norvegicus. Briefly: Inhibition of angiotensin 2-induced response in intraduodenally dosed pithed normotensive rat. Type of series: functional. To be noted: Rattus norvegicus, intraduodenal.
The target in series [20] is T4, Type-1 angiotensin II receptor (Bos taurus) (UniProt P25104).
T4 sequence (whole entry): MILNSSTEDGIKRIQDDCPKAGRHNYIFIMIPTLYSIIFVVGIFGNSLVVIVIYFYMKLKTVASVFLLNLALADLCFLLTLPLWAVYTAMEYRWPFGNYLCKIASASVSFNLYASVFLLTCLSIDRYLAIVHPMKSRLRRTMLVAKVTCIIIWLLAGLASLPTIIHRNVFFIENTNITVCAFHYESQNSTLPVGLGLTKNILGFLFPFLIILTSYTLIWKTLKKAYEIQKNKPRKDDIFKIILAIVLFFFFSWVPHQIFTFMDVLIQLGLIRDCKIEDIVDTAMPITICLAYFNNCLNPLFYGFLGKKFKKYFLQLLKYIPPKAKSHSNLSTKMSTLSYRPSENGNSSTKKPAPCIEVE
Kind of series: Binding affinity to angiotensin AT1 receptor in bovine adrenal cortex membranes. Type of series: cell membranes. Conditions: Membrane.

Series [21] is described as follows: Displacement of radiolabeled angiotensin2 from angiotensin AT1 receptor in rat adrenal cortex membranes. Type of series: cell membranes, Membrane.
A short description of series [22]: Displacement of radiolabeled angiotensin2 from angiotensin AT1 receptor in rat vascular smooth muscle.
Series [23] relates to Rattus norvegicus. Kind of series: Antihypertensive activity in iv dosed renal hypertensive rat model. The class given is functional. Conditions: read-out: ED50.
The subject of series [24] is Rattus norvegicus. Kind of series: Antihypertensive activity in po dosed renal hypertensive rat model. Type of series: functional. Conditions: read-out: ED50.
A short description of series [25]: Antagonist activity at angiotensin AT1 receptor in rat adrenal cortical membranes. Type of series: functional, cell membranes.
Series [26] is described as follows: Antagonist activity at angiotensin AT1 receptor in rat kidney homogenates. The class given is functional, tissue-based.
The species named for series [27] is Rattus norvegicus. Briefly: Antihypertensive activity in renal hypertensive rat model assessed as reduction of blood pressure. The class given is functional.
Series [28] addresses T1, Type-1 angiotensin II receptor (Homo sapiens). Kind of series: Antagonist activity at angiotensin AT1 receptor. The class given is functional.
The subject of series [29] is Rattus norvegicus. Briefly: Ratio of compound ED50 to losartan ED50 for po dosed renal hypertensive rat model. Type of series: functional.
The target of series [30] is T1, Type-1 angiotensin II receptor (Homo sapiens). Briefly: Ratio of compound Ki to losartan Ki for angiotensin AT1 receptor.
Series [31] is filed under the species Rattus norvegicus. Briefly: Antihypertensive activity in spontaneous hypertensive rat model assessed as reduction of blood pressure. Type of series: functional.
The target of series [32] is T5, Type-1 angiotensin II receptor (Oryctolagus cuniculus) (UniProt P34976).
T5 sequence (whole entry): T1 sequence (whole entry) with I2M, V49A, I254V, I270V, R272H, R311K, T349S, A353V
The description is as §2. Type of series: functional, tissue-based.

In series [33] the test system is Rattus norvegicus. Kind of series: Antihypertensive activity in renal hypertensive rat model assessed as reduction of mean arterial blood pressure at 30 mg/kg, po. The class given is functional, Artery. Also noted: scale not given: the % may be the effect or the level left.
In series [34] the test system is Rattus norvegicus. Kind of series: Antihypertensive activity in renal hypertensive rat model assessed as reduction of mean arterial blood pressure at 10 mg/kg, po. Type of series: functional, Artery. On the set-up: scale not given: the % may be the effect or the level left.
The subject of series [35] is Rhesus monkey. Kind of series: Antihypertensive activity in salt depleted normotensive monkey model assessed as reduction of blood pressure at 10 mg/kg, po. On the set-up: scale not given: the % may be the effect or the level left. Type of series: functional, Macaca mulatta.
Series [36] concerns the target T3, Type-1 angiotensin II receptor. Kind of series: Antagonist activity at angiotensin AT1 receptor in rabbit thoracic aortic rings. Conditions: read-out: pA2 (converted). The class given is functional.
Series [37] concerns the target T6, Type-1 angiotensin II receptor (Homo sapiens, UniProt P30556).
T6 sequence (P30556 whole entry): T1 sequence (whole entry)
The description is as §1.

In series [38] the test system is Rhesus monkey. Briefly: Antihypertensive activity in rhesus monkey assessed as inhibition of angiotensin 2-induced pressor response at 10 mg/kg, po after 4 to 24 hrs. Conditions: Macaca mulatta. The class given is functional.
A short description of series [39]: as §3. The class given is functional, cell membranes, Membrane.
Series [40] deals with Rattus norvegicus. Kind of series: Antihypertensive activity in po dosed conscious goldblatt hypertensive rat model assessed as reduction of angiotensin 2-induced mean arterial blood pressure. To be noted: Artery. Type of series: functional.
The target of series [41] is T3, Type-1 angiotensin II receptor. Briefly: Displacement of [125I]-Sar1Ile8-angiotensin 2 from angiotensin AT1 receptor in rabbit aortic membranes. Type of series: cell membranes.

Consider `CCCCc1nc2c(n1Cc1ccc(-c3ccccc3-c3nnn[nH]3)cc1)C(=O)N1C3CCC(CC3)N1C2`, for which, in [1], the pKb is 10.6. In addition, in series [2], the IC50 came out at 1.3 nM.

Take `CCCc1nc2cc(C(=O)OC)[nH]c2n1Cc1ccc(-c2ccccc2C(=O)O)cc1`: in series [3], the Kb is 15.8 nM.

On to `CCCCc1nn(CCCC)c(=O)n1Cc1ccc(-c2ccccc2-c2nn[nH]n2)cc1`, for which the Kb in series [4] was 1.38 nM. In addition, in series [5], half-maximal inhibition (IC50) required 5.1 nM.

`CCCc1nc2c(C)cc(-c3nc4ccccc4n3C)cc2n1Cc1ccc(-c2ccccc2C(=O)O)cc1` showed a Ki in [6] of 3.7 nM.

For `CCc1cc2c(c(CC)n1)CCC(=O)N2Cc1ccc(-c2ccccc2-c2nnn[nH]2)cc1`, the ED50 in [7] stood at 3 mg/kg.

For `CCCCc1nc2ccn(CC(=O)N(C)C)c(=O)c2n1Cc1ccc(-c2ccccc2-c2nnn[nH]2)cc1`, the IC50 in [8] is 0.2 nM; in [9], 0.7 nM.

Turning to `CCc1nc2c(C)cc(C)nc2n1Cc1ccc2c(c1)C(Cc1nnn[nH]1)c1ccccc1-2` (centres undefined), in [10], the Kb was 0.631 nM. For the same compound, the IC50 in series [11] is 11 nM.

`CCc1nc2c(C)cc(C)nc2n1Cc1cccc([C@@H](c2ccccc2)[C@@H](C)C(=O)O)c1` showed a bioavailability in series [12] of 91%. Moreover, the half-life in series [13] is 9.1 h. Also, the Activity was determined as 0.069 µM in series [14], 39 mmHg in series [15] and 24 mmHg in series [16].

For the compound `CCc1nc2c(C)cc(C)nc2n1Cc1ccc(-c2ccccc2S(=O)(=O)NC(=O)NCC2CC2)cc1`, the IC50 in series [17] is 1000 nM. Moreover, the ED50 is 0.014 µmol/kg in series [18] and 0.012 mg/kg in series [19].

In turn, `CCCCc1nc(Cl)c(CO)n1Cc1ccc(-c2ccccc2-c2nnn[nH]2)cc1` [LOSARTAN] came in with an Activity in series [20] of 11.6 nM. Further, the concentration for half-maximal inhibition (IC50) in series [21] stood at 19 nM; in [22] it was 20 nM; in series [25], 0.82 nM; in series [17], 6.7 nM. Further, the ED50 in series [23] was determined as 0.78 mg/kg; in series [24], 0.59 mg/kg. Moreover, the pA2 in series [26] came out at 7.8.

Regarding `CCc1nc2c(C)cc(C)nc2n1Cc1ccc2nc(-c3ccccc3NS(=O)(=O)C(F)(F)F)ccc2c1` [GA0113], the bioavailability in series [12] came to 94%. Moreover, in series [27], the ED25 worked out at 0.015 mg/kg.

In the case of `CCCCC1=NC(Cl)=C(C(=O)O)C(C)N1Cc1ccc(-c2ccccc2-c2nn[nH]n2)cc1` (centres undefined), in series [28], the Kb was 0.45 nM. Moreover, the “Ratio ED50” value in series [29] is reported as 20. Also, in series [30], the Ratio Ki worked out at 10. The ED50 in series [31] was 0.08 µmol/kg.

On to `CCCCc1ncc(/C=C2/C(=O)N(CCCC)C(=O)N2Cc2csc(C)n2)n1Cc1ccc(C(=O)OC)cc1`, for which the Activity in series [32] stood at 3.8 nM; in [33] it was 40%; in series [34], 25%; in series [35], 27%.

Take `CCCCc1nc2cc(OC)cc(C(=O)O)c2n1Cc1ccc(N(CC)C(C(=O)O)c2ccccc2)cc1` (centres undefined): the Kb in series [36] was 5.01 nM.

Regarding `CCCCc1nn(-c2ccccc2C(F)(F)F)c(=O)n1Cc1ccc(-c2ccccc2S(=O)(=O)NC(=O)c2ccccc2)cc1` [L-159913], the bioavailability in series [12] was 44%. In [37], this compound registered a Ki of 1.7 nM. Besides, the inhibition in vivo at 10 mg/kg in [38] amounted to 76%.

Take `Cc1nc(C)c2c(n1)N(Cc1ccc(-c3ccccc3-c3nnn[nH]3)cc1)C(=O)CC2` [TASOSARTAN]: the IC50 in series [39] was 5.2 nM. The ED50 in [40] was determined as 0.58 mg/kg.

On to `CCCCc1nn(CC(C)(C)C)c(=O)n1Cc1ccc(-c2ccccc2-c2nnn[nH]2)cc1`, for which the IC50 in series [41] worked out at 1.2 nM.
